Laboratory results: patent US8404669B2, “Kinase modulating compounds and uses thereof for treatment of cancer” (University of Florida Research Foundation, Inc., priority 2007, dated 2013)
Entries after “also recorded” stand apart in the source; their conditions may differ. Blank lines part the entries; values can stand above or below the compound they belong to. Ends that are not written are not given here.

How the values were obtained:
[1] = tested on: subcutaneous xenograft models of breast and pancreatic cancers; test: Subcutaneous xenograft models in nude mice, tumor growth; assay type: in vivo; conditions: for anticancer effect on tumor growth in vivo: single agent, mouse xenograft
Source text: (§1) Furthermore, these compounds sensitized the cancer cells to chemotherapy. […] See, FIGS. 3-14.

[2] = tested on: cancer cells; test: Cell cycle and apoptosis of cancer cells; assay type: cell-based, human
Method: Cell-based assays. Selected small molecules are evaluated in cell-based proliferation and apoptosis assays in model system of BT474 and MCF7 breast cancer cells and normal MCF10 cells. Other cells lines relevant for study are MiaPaCa-2 and PANC-1 (pancreatic cancer), A375 (melanoma), A549 (lung cancer), HT29 and COLO5 (colon cancer), SAOS (osteosarcoma), HCT116 p53(-/-) and HCT116 p53(+/+) (colon cancer) and […] (melanoma). The multiplex approach to analyze more than one parameter from the same culture well is used. The CellTiter-Blue Cell Viability Assay (Promega). CellTiter-Blue Reagent is added directly to each well (20μ reagent to each 100μ of medium in 96-well format), the plates are incubated at 37° C., and the fluorescent signal is measured (560Ex/590Em). This test can be combined with additional assays. The caspase activity is measured in the same wells by adding 120μ of the Apo-ONE Homogeneous […]-3/7 Assay Reagent (Promega). Cells are incubated for an additional hour at ambient temperature prior to recording fluorescence (485Ex/527Em);

[3] = tested on: cancer cells, including breast, colon, pancreatic, melanoma, lung, osteosarcoma; test: Cancer cell viability and proliferation assays (CellTiter 96, CellTiter-Blue, MTT); assay type: cell-based, human
Method: Cell-based assays. Selected small molecules are evaluated in cell-based proliferation and apoptosis assays in model system of BT474 and MCF7 breast cancer cells and normal MCF10 cells. Other cells lines relevant for study are MiaPaCa-2 and PANC-1 (pancreatic cancer), A375 (melanoma), A549 (lung cancer), HT29 and COLO5 (colon cancer), SAOS (osteosarcoma), HCT116 p53(−/−) and HCT116 p53(+/+) (colon cancer) and C8186 (melanoma). The multiplex approach to analyze more than one parameter from the same culture well is used.
CellTiter 96 Aqueous One Solution Cell Proliferation Assay (Promega). The assay is performed by adding a small amount of the One Solution Reagent directly to culture wells, incubating for 1-4 hours and then recording absorbance at 490 nm with a spectrophotometric plate reader. The quantity of formazan product as measured by the amount of 490 nm absorbance is directly proportional to the number of living cells in culture;
The CellTiter-Blue Cell Viability Assay (Promega). CellTiter-Blue Reagent is added directly to each well (20μ reagent to each 100μ of medium in 96-well format), the plates are incubated at 37° C., and the fluorescent signal is measured (560Ex/590Em). This test can be combined with additional assays. The caspase activity is measured in the same wells by adding 120μ of the Apo-ONE Homogeneous Caspace-3/7 Assay Reagent (Promega). […]

[4] = tested on: cancer cells; test: Motility and invasiveness of cancer cells; assay type: cell-based
[5] = tested on: MCF7 control clone transfected with the vector pcDNA3; test: Viability of control MCF7 clone transfected with vector pcDNA3; assay type: cell-based, human; conditions: 1 mM
[6] = biological target: T1, FAK (Homo sapiens, UniProt Q05397); test: FAK dephosphorylation in cells; assay type: cell-based
T1 construct: specific displacement of FAK from the focal adhesions of the tumor cells; endogenous in cells; host or cells: tumor cells; BT474 named for the focal adhesion staining
Method: (§2) Measurement of FAK-specific effect. The readout of a FAK-specific effect of selected in silico small molecules is specific displacement of FAK from the focal adhesions of the tumor cells. Tumor cells are doubly stained with FAK and paxillin using dual color techniques and extensive biochemical analyses of effects on FAK signaling are performed, essentially as previously published. See, Garces, C. A., et al., Vascular Endothelial Growth Factor Receptor-3 and Focal Adhesion Kinase Bind and Suppress Apoptosis in Breast Cancer Cells. Cancer Res % R 10.1158/0008-5472.CAN-05-1661, 2006. 66(3): p. 1446-1454; Xu, L.-h., et al., The focal adhesion kinase suppresses transformation-associated, anchorage-Independent apoptosis in human breast cancer cells. J. Biol. Chem., 2000. 275: p. 30597-30604; Kurenova, E., et al., Focal Adhesion Kinase Suppresses Apoptosis by Binding to the Death Domain of Receptor-Interacting Protein. Mol. Cell. Biol., 2004. 24(10): p. 4361-4371.

[7] = biological target: T2, VEGFR-3 (Homo sapiens, UniProt P35916); test: VEGFR-3 dephosphorylation in cells; assay type: cell-based
T2 construct: expressed in transfected cells

[8] = biological target: T3, FAK and VEGFR-3 interaction (Homo sapiens, UniProt Q05397); test: FAK and VEGFR-3 interaction and colocalization (immunofluorescence confocal microscopy, FRET); assay type: cell-based; conditions: for colocalization of FAK and VEGFR-3 in the cells: confocal microscopy
T3 construct: endogenous in cells; BT474 for the FAK/VEGFR-3 staining
Method: as §1
(§3) FIG. 1.3. […] FAK and VEGFR-3 in BT474 cells were stained for FAK with a Texas Red-conjugated secondary antibody and VEGFR-3 with a Alexa Fluor 488-conjugated secondary antibody and then viewed with a Leica confocal microscope. After 24 hours of peptide-AV3 (black) treatment, staining was repeated, proliferation was measured by MTT assay, apoptosis was measured by Hoechst staining and TUNEL Assay. Control scrambled peptide-AV3S (white) was also used in all experiments. (FIG. 1.10, STEP 2A).

[9] = tested on: MCF7 cells overexpressing wt VEGFR3; test: Viability of stable clone overexpressing wt VEGFR3 in MCF7 cells; assay type: cell-based, human; conditions: 1 mM
[10] = tested on: cancer cells; test: Dual treatment of cancer cells with C4 and chemotherapeutic drugs; assay type: cell-based, human
Source text: FIG. 1.9. Dual treatment of cancer cells with C4 compound and chemotherapeutic drugs. […] Concentrations correspond to IC50 cell-specific concentration for all used drugs.

[11] = tested on: PARP; test: PARP down-regulation; assay type: cell-based
Source text: As such, these compounds are useful as therapeutic agents.

[12] = biological target: T4, FAK in focal adhesions of BT474 cells (Homo sapiens, UniProt Q05397); test: Displacement of FAK from focal adhesions (dual colour staining, confocal microscopy); assay type: cell-based; conditions: 24 hours of peptide treatment
T4 construct: specific displacement of FAK from the focal adhesions of the tumor cells; endogenous in cells; host or cells: tumor cells; BT474 named for the focal adhesion staining
Method: as §2
FIG. 1.3. […] FAK and VEGFR-3 in BT474 cells were stained for FAK with a Texas Red-conjugated secondary antibody and VEGFR-3 with a Alexa Fluor 488-conjugated secondary antibody and then viewed with a Leica confocal microscope. After 24 hours of peptide-AV3 (black) treatment, staining was repeated, proliferation was measured by MTT assay, apoptosis was measured by Hoechst staining and TUNEL Assay. […]

[13] = tested on: breast cancer cell lines; test: Peptide effect on proliferation (MTT), detachment and apoptosis (Hoechst, TUNEL) in breast cancer cell lines; assay type: cell-based, human; conditions: 24 hours
Method: as §3

T1 sequence (Q05397 whole entry): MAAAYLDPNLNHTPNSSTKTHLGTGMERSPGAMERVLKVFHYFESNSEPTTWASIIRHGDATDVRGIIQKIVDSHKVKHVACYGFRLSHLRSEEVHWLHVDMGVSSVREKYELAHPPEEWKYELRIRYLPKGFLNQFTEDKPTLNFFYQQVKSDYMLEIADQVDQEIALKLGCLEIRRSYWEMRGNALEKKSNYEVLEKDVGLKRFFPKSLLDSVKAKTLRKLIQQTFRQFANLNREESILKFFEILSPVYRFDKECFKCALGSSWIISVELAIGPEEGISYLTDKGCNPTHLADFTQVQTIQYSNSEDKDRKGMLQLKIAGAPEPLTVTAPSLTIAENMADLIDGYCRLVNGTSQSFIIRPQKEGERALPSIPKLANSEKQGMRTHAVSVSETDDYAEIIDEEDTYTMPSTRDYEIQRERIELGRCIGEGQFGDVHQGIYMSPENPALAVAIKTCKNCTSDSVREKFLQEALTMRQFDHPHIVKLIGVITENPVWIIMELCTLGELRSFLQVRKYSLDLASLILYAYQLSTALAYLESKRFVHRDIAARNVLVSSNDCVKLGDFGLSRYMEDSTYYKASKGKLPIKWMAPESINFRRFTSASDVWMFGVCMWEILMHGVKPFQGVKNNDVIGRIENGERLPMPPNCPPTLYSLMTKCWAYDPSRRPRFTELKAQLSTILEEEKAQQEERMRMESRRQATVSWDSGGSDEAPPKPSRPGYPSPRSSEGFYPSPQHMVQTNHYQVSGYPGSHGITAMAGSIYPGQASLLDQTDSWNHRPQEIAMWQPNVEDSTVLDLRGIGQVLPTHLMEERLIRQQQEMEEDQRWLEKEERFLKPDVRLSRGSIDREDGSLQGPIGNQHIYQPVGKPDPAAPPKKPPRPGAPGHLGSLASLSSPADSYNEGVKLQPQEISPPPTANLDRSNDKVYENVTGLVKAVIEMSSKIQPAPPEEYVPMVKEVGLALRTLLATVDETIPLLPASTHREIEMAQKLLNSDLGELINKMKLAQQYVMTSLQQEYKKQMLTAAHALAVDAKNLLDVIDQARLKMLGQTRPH
T3 sequence (Q05397 2-1052 limits assumed): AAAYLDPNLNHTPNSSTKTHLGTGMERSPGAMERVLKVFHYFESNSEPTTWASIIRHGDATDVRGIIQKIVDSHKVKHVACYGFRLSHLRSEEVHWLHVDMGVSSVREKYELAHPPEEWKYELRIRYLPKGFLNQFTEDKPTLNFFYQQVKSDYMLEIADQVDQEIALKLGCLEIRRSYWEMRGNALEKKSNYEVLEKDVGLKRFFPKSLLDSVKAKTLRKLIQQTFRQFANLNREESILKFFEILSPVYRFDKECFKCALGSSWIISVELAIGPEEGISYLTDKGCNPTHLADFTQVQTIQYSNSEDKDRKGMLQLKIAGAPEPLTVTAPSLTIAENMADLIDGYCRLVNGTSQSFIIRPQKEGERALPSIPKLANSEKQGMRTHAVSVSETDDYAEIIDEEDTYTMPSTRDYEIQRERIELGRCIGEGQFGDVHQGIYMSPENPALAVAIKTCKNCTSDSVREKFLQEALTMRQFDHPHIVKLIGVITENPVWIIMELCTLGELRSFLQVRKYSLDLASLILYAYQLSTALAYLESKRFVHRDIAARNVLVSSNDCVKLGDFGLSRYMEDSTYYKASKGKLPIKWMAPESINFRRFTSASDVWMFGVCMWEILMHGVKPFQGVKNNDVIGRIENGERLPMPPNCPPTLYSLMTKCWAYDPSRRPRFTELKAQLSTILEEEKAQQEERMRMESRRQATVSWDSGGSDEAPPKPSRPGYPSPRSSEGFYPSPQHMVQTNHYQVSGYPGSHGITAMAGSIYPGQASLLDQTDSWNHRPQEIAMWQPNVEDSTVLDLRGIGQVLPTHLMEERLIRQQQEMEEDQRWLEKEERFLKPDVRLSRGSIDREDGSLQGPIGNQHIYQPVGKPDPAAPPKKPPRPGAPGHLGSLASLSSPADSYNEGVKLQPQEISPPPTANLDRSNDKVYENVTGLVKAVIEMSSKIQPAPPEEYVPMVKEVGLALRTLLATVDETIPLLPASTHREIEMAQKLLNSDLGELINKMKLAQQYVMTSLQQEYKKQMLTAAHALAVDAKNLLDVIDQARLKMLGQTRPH
T2 sequence (P35916 25-1363): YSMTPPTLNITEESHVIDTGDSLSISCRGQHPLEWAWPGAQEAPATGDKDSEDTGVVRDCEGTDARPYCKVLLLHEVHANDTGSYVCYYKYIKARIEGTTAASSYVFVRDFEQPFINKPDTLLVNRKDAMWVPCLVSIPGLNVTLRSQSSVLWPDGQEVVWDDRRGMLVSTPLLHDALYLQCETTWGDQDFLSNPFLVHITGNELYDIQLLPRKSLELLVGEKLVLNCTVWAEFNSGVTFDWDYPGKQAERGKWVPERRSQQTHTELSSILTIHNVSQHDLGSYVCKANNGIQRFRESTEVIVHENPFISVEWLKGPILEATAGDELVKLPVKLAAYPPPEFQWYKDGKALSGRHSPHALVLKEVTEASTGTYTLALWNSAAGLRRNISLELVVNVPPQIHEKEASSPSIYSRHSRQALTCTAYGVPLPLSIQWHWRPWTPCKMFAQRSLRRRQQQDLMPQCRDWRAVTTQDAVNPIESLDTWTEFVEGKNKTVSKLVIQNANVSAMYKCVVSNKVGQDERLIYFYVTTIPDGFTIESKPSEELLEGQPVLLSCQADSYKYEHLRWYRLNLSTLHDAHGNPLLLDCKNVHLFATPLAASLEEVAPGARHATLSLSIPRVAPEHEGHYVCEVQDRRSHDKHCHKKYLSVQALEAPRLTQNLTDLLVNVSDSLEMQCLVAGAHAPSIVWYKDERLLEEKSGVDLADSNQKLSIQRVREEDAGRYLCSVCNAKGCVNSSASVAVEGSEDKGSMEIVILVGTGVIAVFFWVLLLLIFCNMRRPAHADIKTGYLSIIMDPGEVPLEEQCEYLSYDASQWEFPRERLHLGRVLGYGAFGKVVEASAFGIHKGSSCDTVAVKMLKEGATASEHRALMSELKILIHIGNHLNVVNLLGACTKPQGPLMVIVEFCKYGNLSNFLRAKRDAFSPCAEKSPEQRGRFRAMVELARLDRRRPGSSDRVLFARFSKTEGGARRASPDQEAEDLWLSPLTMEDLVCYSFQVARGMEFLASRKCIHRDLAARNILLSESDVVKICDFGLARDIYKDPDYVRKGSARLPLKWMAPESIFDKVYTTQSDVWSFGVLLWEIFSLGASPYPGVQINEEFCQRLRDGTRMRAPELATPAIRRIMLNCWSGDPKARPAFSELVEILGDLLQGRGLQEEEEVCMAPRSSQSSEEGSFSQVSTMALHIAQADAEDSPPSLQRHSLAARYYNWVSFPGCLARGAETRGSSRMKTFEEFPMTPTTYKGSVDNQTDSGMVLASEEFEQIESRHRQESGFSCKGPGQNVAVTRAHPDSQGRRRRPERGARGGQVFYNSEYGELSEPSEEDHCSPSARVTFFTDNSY
T4 sequence (Q05397 whole entry): as the sequence (Q05397 whole entry) above

Compound: CN(C)CCOC(c1ccccc1)c1ccccc1 [Benadryl, reference compound]
- anticancer effect on tumor growth in vivo [1]: no any anticancer properties

Compound: WHWRPWTPCKMF (also: TAT penetration sequence coupled for cell tests) [peptide-AV3]
- displacement of FAK from the focal adhesions [12]: caused specific displacement of FAK from the focal adhesions
- displacement of FAK from the focal adhesions ([12]; listed as Peptide-AV3): causes specific displacement of FAK from the focal adhesions
- cell detachment in breast cancer cell lines [13]: caused cell detachment
- cell detachment in breast cancer cell lines ([13]; listed as Peptide-AV3): increased detachment
- apoptosis in breast cancer cell lines ([13]; Hoechst staining and TUNEL): apoptosis
- proliferation of breast cancer cell lines ([13]; MTT): decreased proliferation
- colocalization of FAK and VEGFR-3 in the cells [8]: affected co-localization of FAK and VEGFR-3; also recorded: affected colocalization of FAK and VEGFR-3

The next lines start with results.

- dephosphorylation of VEGFR3 ([7]; treatment for 24 h with 10 mM compound): caused dephosphorylation of VEGFR3
- FAK and VEGFR-3 interaction [8]: disrupts their interaction
Compound: CN(C)CCN(Cc1ccc(Cl)cc1)c1ccccn1 [Compound C4, N′-[(4-chlorophenyl)methyl]-N,N-dimethyl-N′-pyridin-2-yl-ethane-1,2-diamine]
- cell cycle [2]: blockage at G1/S cell cycle transition
- apoptosis of cancer cells ([2]; in vitro): apoptosis of cancer cells; also recorded: causes apoptosis in pancreatic and breast cancer cells in vitro
- reduction of tumor growth in comparison with nontreated tumors ([1]; 60 mg/kg, daily intraperitoneal injections, nude mice): up to 75%
- tumor growth after treatment withdrawal ([1]; C4 combined with Gemcitabine, pancreatic tumor): prolonged cytostatic effect on pancreatic tumor growth after treatment withdrawal
- anticancer effect in combination with Gemcitabine ([1]; C4 combined with Gemcitabine, versus each drug separately): much stronger anticancer effect than each of the drugs separately
- tumor growth compared with doxorubicin ([1]; breast cancer): decreases tumor growth better than doxorubicin
- anticancer effect on tumor growth in vivo [1]: strong anticancer effect; also recorded: reduces tumor growth in vivo in mouse model of breast cancer and pancreatic cancer
- cell proliferation [3]: delay in cell proliferation
- viability of cancer cells ([3]; in vitro): decreases viability of many different types of cancer cells
- motility and invasiveness of cancer cells [4]: reduces motility and invasiveness of cancer cells
- viability of control clone [5]: resistant to this concentration of the drug
- FAK phosphorylation [6]: specifically dephosphorylates FAK and VEGFR-3
- VEGFR-3 phosphorylation [7]: specifically dephosphorylates FAK and VEGFR-3
- colocalization of FAK and VEGFR-3 in the cells [8]: decrease in their colocalization in the cells
- viability of VEGFR3 clone [9]: reproducible decrease in viability
- effect of dual treatment with doxorubicin ([10]; C4 combined with doxorubicin, IC50 cell-specific concentrations): At least additive effect is very pronounced
- cell viability in combination with chemotherapy (sensitization) ([10]; in combination with Doxorubicin and Gemcitabine, in vitro): improved effect on decrease of cells viability; also recorded: sensitizes pancreatic cancer and breast cancer cells to chemotherapy treatment in vitro

- phosphorylation of Y397 [6]: cause de-phosphorylation of Y397
Compound: COC(=O)Nc1nc2ccc(C(=O)C3CC3)cc2[nH]1 [Compound D4, methyl N-[5-(cyclopropanecarbonyl)-3H-benzoimidazol-2-yl]carbamate]
- PARP level [11]: causes PARP down-regulation

- phosphorylation of Y397 [6]: cause de-phosphorylation of Y397
Compound: Cc1cc(C)nc(Nc2nc3cc([N+](=O)[O-])ccc3[nH]2)n1 [Compound D5, (4,6-Dimethyl-pyrimidin-2-yl)-(5-nitro-1H-benzoimidazol-2-yl)-amine]

- phosphorylation of Y397 [6]: cause de-phosphorylation of Y397
Compound: COc1ccc(NC(=O)Nc2cc(Cl)ccc2OC)c(Cl)c1 [Compound D6, 1-(2-chloro-4-methoxy-phenyl)-3-(5-chloro-2-methoxy-phenyl) urea]
